Experimental data taken from patent US12522594B2, “2-heteroaryl-3-oxo-2,3-dihydropyridazine-4-carboxamides for the treatment of cancer” (Deutsches Krebsforschungszentrum, priority 2017, dated 2026).
Several values for one entry are separate records, joined by “and”; a condition that tells them apart may be missing. Equal entries are not always repeated.

Assays:
Type in all cases: cell-based
[1] = molecular target: T1, AHR (Homo sapiens, UniProt P35869); test: In vitro assay 2: agonism in human cell line (transactivation assay, U87 cells, DRE firefly luciferase reporter); set-up: host or cells: U87 glioblastoma cells, stably transfected with DRE firefly luciferase and renilla reporter constructs; conditions: no kynurenic acid, 20 hours, read-out: Assay 2: AHR-luc Hum Agonism IC50
T1 sequence (P35869 11-848): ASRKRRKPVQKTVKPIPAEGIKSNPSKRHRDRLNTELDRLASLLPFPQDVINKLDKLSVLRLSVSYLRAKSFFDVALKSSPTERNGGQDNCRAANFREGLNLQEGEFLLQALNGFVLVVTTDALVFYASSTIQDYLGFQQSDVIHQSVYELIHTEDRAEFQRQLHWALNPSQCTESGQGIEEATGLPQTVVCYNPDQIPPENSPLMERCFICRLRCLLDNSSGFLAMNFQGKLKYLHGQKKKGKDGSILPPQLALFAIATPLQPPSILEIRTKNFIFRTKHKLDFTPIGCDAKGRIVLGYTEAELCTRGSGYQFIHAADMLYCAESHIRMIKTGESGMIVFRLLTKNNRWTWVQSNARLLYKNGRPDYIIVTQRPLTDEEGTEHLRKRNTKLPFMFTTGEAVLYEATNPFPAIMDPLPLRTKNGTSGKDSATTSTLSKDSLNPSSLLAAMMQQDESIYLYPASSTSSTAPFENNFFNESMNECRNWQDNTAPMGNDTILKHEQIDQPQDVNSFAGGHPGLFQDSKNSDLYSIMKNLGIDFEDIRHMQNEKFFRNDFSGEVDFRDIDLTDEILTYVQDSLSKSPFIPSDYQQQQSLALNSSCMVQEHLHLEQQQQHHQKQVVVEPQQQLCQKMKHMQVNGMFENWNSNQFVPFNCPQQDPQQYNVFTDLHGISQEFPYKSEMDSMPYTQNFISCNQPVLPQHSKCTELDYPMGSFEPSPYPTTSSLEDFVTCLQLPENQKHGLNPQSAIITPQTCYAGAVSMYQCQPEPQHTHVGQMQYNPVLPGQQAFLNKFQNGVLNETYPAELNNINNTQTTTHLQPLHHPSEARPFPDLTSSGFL
Summary of the method: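 U87 glioblastoma cells with endogenous AHR, stably carrying DRE-driven firefly luciferase and constitutive renilla reporters. 300 uM kynurenic acid served as positive activation control; data normalized to positive and negative controls.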

[2] = tested on: human monocytes; test: In vitro assay 4: rescue of TNFα production from human primary monocytes (LPS + KA); conditions: one value per donor; for Individual Donors Conc of highest rescue: concentration (of 1, 0.3, 0.1 uM tested) at which highest TNFα rescue was observed; for Individual Donors % rescue TNFα normalised to ref cmpd: human monocytes, 10 ng/mL LPS + 200 uM KA, 18 hours, highest percent rescue relative to highest rescue with GNF-351
Description: In Vitro Assay 4: Rescue of TNFα Production from Human Primary Monocytes
The ability of the substances to enhance immune cell activity was determined. The substances were tested for their capacity to reverse KA-induced inhibition of TNFα production by LPS-stimulated human monocytes. Human monocytes were purified by negative selection from donor PBMCs using Miltenyi beads and seeded at 2×10^5 cells/well in complete growth medium (RPMI 1640, 10% FCS). Monocytes were incubated with 10 ng/mL LPS (O127:B8, #L4516, Sigma) and 200 uM KA (#3375, Sigma) and substances were added at concentrations of 1 uM, 0.3 uM and 0.1 uM and cultured for 18 hours. LPS alone served as the positive control. TNFα production in the supernatant was measured by Meso Scale Discovery immunoassay and the ability of the substances to rescue TNFα production was calculated as a percentage of LPS stimulation and KA-induced inhibition and normalized to the donor-specific response with the reference AHR antagonist compound GNF-351 (Smith et al., J Pharmacol Exp Ther, 2011, 338(1):318-27).

[3] = molecular target: T1, AHR; test: In vitro assay 1: antagonism in human cell line (transactivation assay, U87 cells prestimulated with kynurenic acid, DRE firefly luciferase reporter); set-up: host or cells: U87 glioblastoma cells, stably transfected with DRE firefly luciferase and renilla reporter constructs; conditions: 150 uM kynurenic acid, 20 hours, read-out: Assay 1: AHR-luc Hum Antagonism IC50
Summary of the method: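 U87 glioblastoma cells with endogenous AHR, stably carrying a DRE-driven firefly luciferase reporter and a constitutive renilla reporter. Cells prestimulated with the AHR agonist kynurenic acid before compound addition; data normalized to positive and negative controls.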

[4] = molecular target: T1, AHR; test: In vitro assay 3: AHR-regulated CYP1A1 expression in human cell line (U937, qPCR, KA stimulation); conditions: U937 cells, 200 uM KA, 6 hours, CYP1A1 expression by qPCR; read-out: Assay 3: Hum CYP1A1 Antagonism IC50
Summary of the method: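 U937 human monocytic cells were stimulated with 200 uM KA for 6 h, with or without compound at eight concentrations from 1 nM to 3 uM, in duplicate. CYP1A1 mRNA was quantified by Taqman qPCR as fold expression normalised to HPRT. Unstimulated cells served as negative control.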

| Structure (SMILES) | IC50 [1] [µM] | IC50 [3] [nM] | IC50 [4] [nM] | Individual Donors Conc of highest rescue [2] | Individual Donors % rescue TNFα normalised to ref cmpd [2] |
| --- | --- | --- | --- | --- | --- |
| O=C(NCC(O)C(F)F)c1cc(-c2ccc(Cl)cc2)nn(-c2cccnc2)c1=O (racemic) [Example 79, 6-(4-Chlorophenyl)-N-[(2RS)-3,3-difluoro-2-hydroxypropyl]-3-oxo-2-(pyridin-3-yl)-2,3-dihydropyridazine-4-carboxamide] | > 20 | 39.5 | 80.4 | 0.3 µM and 0.1 µM | 76% and 63% |
| Cn1cc(-n2nc(-c3ccc(Cl)cc3)cc(C(=O)NCC(O)C(F)F)c2=O)cn1 (single isomer, unassigned; (+)) [Example 23, (+)-6-(4-Chlorophenyl)-N-(3,3-difluoro-2-hydroxypropyl)-2-(1-methyl-1H-pyrazol-4-yl)-3-oxo-2,3-dihydropyridazine-4-carboxamide] | > 20 | 45.7 |  | 1 µM | 274% and 81% |
| Cc1ccc(-c2cc(C(=O)NC(C)CO)c(=O)n(-c3cnn(C)c3)n2)cc1 (stereo not drawn) [Example 7, N-(1-Hydroxypropan-2-yl)-6-(4-methylphenyl)-2-(1-methyl-1H-pyrazol-4-yl)-3-oxo-2,3-dihydropyridazine-4-carboxamide] | > 20 | 20.5 |  | 0.1 μM and 1 μM (2×) | 126% and 63% and 49% |
| Cc1ccc(-c2cc(C(=O)N[C@@H](C)CO)c(=O)n(-c3cnn(C)c3)n2)cc1 [Example 8, N-[(2S)-1-Hydroxypropan-2-yl]-6-(4-methylphenyl)-2-(1-methyl-1H-pyrazol-4-yl)-3-oxo-2,3-dihydropyridazine-4-carboxamide] | > 20 | 19 | 15.8 | 1 μM (4×) and 0.1 μM | 99% and 55% and 104% and 109% and 36% |
| Cn1cc(-n2nc(-c3ccc(Cl)cc3)cc(C(=O)NC[C@H](O)CO)c2=O)cn1 [Example 27, 6-(4-Chlorophenyl)-N-[(2S)-2,3-dihydroxypropyl]-2-(1-methyl-1H-pyrazol-4-yl)-3-oxo-2,3-dihydropyridazine-4-carboxamide] | > 20 | 177 |  | 1 µM and 0.3 µM | 87% and 105% |
| COC[C@H](CO)NC(=O)c1cc(-c2ccc(Cl)cc2)nn(-c2cnn(C)c2)c1=O [Example 29, 6-(4-Chlorophenyl)-N-[(2S)-1-hydroxy-3-methoxypropan-2-yl]-2-(1-methyl-1H-pyrazol-4-yl)-3-oxo-2,3-dihydropyridazine-4-carboxamide] | > 20 | 76.1 |  | 1 µM | 66% and 88% |

The next lines start with results.

| IC50 [1] [µM] | IC50 [3] [nM] | IC50 [4] [nM] | Structure (SMILES) | Individual Donors Conc of highest rescue [2] | Individual Donors % rescue TNFα normalised to ref cmpd [2] |
| --- | --- | --- | --- | --- | --- |
| > 20 | 5.99 | 3.45 | CCC(CO)NC(=O)c1cc(-c2ccc(C)cc2)nn(-c2cnn(C)c2)c1=O (single isomer, unassigned) [Example 5, N-(1-Hydroxybutan-2-yl)-6-(4-methylphenyl)-2-(1-methyl-1H-pyrazol-4-yl)-3-oxo-2,3-dihydropyridazine-4-carboxamide] | 1 µM | 67% and 99% and 61% |
| > 20 | 78 |  | O=C(NCC(O)C(F)F)c1cc(-c2ccc(Cl)cc2)nn(-c2cccnc2)c1=O (single isomer, unassigned; (+)) [Example 88, (+)-6-(4-Chlorophenyl)-N-(3,3-difluoro-2-hydroxypropyl)-3-oxo-2-(pyridin-3-yl)-2,3-dihydropyridazine-4-carboxamide] | 1 µM | 69% and 35% |
| > 20 | 20 | 11.2 | Cn1cc(-n2nc(-c3ccc(Cl)cc3)cc(C(=O)NCC(O)C(F)F)c2=O)cn1 (single isomer, unassigned; (-)) [Example 22, (−)-6-(4-Chlorophenyl)-N-(3,3-difluoro-2-hydroxypropyl)-2-(1-methyl-1H-pyrazol-4-yl)-3-oxo-2,3-dihydropyridazine-4-carboxamide] | 1 µM | 66% and 71% |
| > 20 | 68.2 | 91.1 | COCC(O)CNC(=O)c1cc(-c2ccc(Cl)cc2)nn(-c2cnn(C)c2)c1=O (single isomer, unassigned; (-)) [Example 25, (−)-6-(4-Chlorophenyl)-11-(2-hydroxy-3-methoxypropyl)-2-(1-methyl-1H-pyrazol-4-yl)-3-oxo-2,3-dihydropyridazine-4-carboxamide] | 1 µM | 46% and 53% |
| > 20 | 23.2 | 18.5 | Cc1ccc(-c2cc(C(=O)NCC(O)C(F)(F)F)c(=O)n(-c3cnn(C)c3)n2)cc1 (single isomer, unassigned; enantiomer 2) [Example 12, (+)-6-(4-Methylphenyl)-2-(1-methyl-1H-pyrazol-4-yl)-3-oxo-N-(3,3,3-trifluoro-2-hydroxypropyl)-2,3-dihydropyridazine-4-carboxamide, Enantiomer 2] | 0.1 μM (2×) and 1 μM and 0.3 μM | 74% and 122% and 213% and 109% |
| > 20 | 32.5 | 20 | Cc1ccc(-c2cc(C(=O)NCC(O)C(F)F)c(=O)n(-c3cnn(C)c3)n2)cc1 (stereo not drawn) [Example 13, N-(3,3-Difluoro-2-hydroxypropyl)-6-(4-methylphenyl)-2-(1-methyl-1H-pyrazol-4-yl)-3-oxo-2,3-dihydropyridazine-4-carboxamide] | 1 µM | 24% and 85% |
| > 20 | 87.5 |  | COCC(O)CNC(=O)c1cc(-c2ccc(Cl)cc2)nn(-c2cnn(C)c2)c1=O (stereo not drawn) [Example 24, 6-(4-Chlorophenyl)-N-(2-hydroxy-3-methoxypropyl)-2-(1-methyl-1H-pyrazol-4-yl)-3-oxo-2,3-dihydropyridazine-4-carboxamide] | 0.3 µM and 1 µM | 84% and 59% |
| > 20 | 214 |  | C[C@H](CO)NC(=O)c1cc(-c2ccc(Cl)cc2)nn(-c2cccnc2)c1=O [Example 69, 6-(4-Chlorophenyl)-N-[(2R)-1-hydroxypropan-2-yl]-3-oxo-2-(pyridin-3-yl)-2,3-dihydropyridazine-4-carboxamide] | 0.1 µM | 88% and 97% |
